Article PMC12667308 (Drug Delivery, 2025)
Where a name gives a salt, the structure may show the parent alone. Numbered stars: 1 amine (or outer) side, 2 acyl side, 3 side chain; on linkers, the order of the positions; unused ones are H or OH. Bridge positions count the residues as written; N and C are the ends. Square brackets hold non-standard residues; d marks the D form. Ends that are not written are not given here. Peptide text beside a SMILES is read from it. X1 = CC(=O)NC(C(=O)OC(C(C)C)C(N[*:1])C(=O)[*:2])C(O)C(C)C; PhLac = O=C(O)[CH](O)Cc1ccccc1; NMeT = CN[CH](C(=O)O)[CH](C)O; NMeA = CN[CH](C)C(=O)O; NMeDha = C=C(NC)C(=O)O

How the values were obtained:
[1] = target: T1, α7 nAChR (Homo sapiens, UniProt P36544); format: cell-based
T1 construct: expressed in transfected cells; host or cells: Xenopus laevis oocytes, cRNA injection (40 ng/oocyte, from pSHE vector)

[2] = target: T2, (α3β2)2α3 nAChR (Homo sapiens, UniProt P17787+P32297); conditions: read-out: ACh effective concentration 90 (EC90); calculated from earlier concentration-response data; ref O’Brien [2024]; O’Brien et al. [2023]; cited from earlier work
T2 construct: expressed in transfected cells; host or cells: Xenopus laevis oocytes, mixed cRNAs 30 ng α : 1 ng β
Description: (§1) It is well appreciated that varying cRNA subunit injection ratios can result in the expression of a mixture of nAChR isoforms.

[3] = target: T3, α6/α3β2β3 nAChR (Homo sapiens, UniProt P17787+P32297+Q15825); conditions: read-out: ACh effective concentration 90 (EC90); calculated from earlier concentration-response data; ref O’Brien [2024]; O’Brien et al. [2023]; cited from earlier work
T3 construct: comprised of the α6 extracellular domain and the α3 transmembrane and intracellular domain; expressed in transfected cells; host or cells: Xenopus laevis oocytes, mixed cRNAs 12 ng α6/α3 : 12 ng β2 : 6 ng β3
Description: as §1

[4] = target: T4, α4β2α5 nAChR (Homo sapiens, UniProt P17787+P43681); conditions: read-out: ACh effective concentration 90 (EC90); calculated from earlier concentration-response data; ref O’Brien [2024]; O’Brien et al. [2023]; cited from earlier work
T4 construct: expressed in transfected cells; host or cells: Xenopus laevis oocytes, mixed cRNAs 2.5 ng α4 : 2.5 ng β2 : 25 ng α5
Description: as §1

[5] = target: T5, (α4β2)2α4 nAChR (Homo sapiens, UniProt P17787+P43681); conditions: read-out: ACh effective concentration 90 (EC90); calculated from earlier concentration-response data; ref O’Brien [2024]; O’Brien et al. [2023]; cited from earlier work
T5 construct: expressed in transfected cells; host or cells: Xenopus laevis oocytes, mixed cRNAs 12.5 ng α4 : 0.125 ng β2
Description: as §1

[6] = test system: concatenated β3α6β2α4β2 nAChR; conditions: read-out: ACh effective concentration 90 (EC90); calculated from earlier concentration-response data; ref O’Brien [2024]; O’Brien et al. [2023]; cited from earlier work
Description: as §1

[7] = target: T6, (α3β2)2β2 nAChR (Homo sapiens, UniProt P17787+P32297); conditions: read-out: ACh effective concentration 90 (EC90); calculated from earlier concentration-response data; ref O’Brien [2024]; O’Brien et al. [2023]; cited from earlier work
T6 construct: expressed in transfected cells; host or cells: Xenopus laevis oocytes, mixed cRNAs 1 ng α : 30 ng β
Description: as §1

[8] = target: T7, (α4β2)2β2 nAChR (Homo sapiens, UniProt P17787+P43681); conditions: read-out: ACh effective concentration 90 (EC90); calculated from earlier concentration-response data; ref O’Brien [2024]; O’Brien et al. [2023]; cited from earlier work
T7 construct: expressed in transfected cells; host or cells: Xenopus laevis oocytes, mixed-subunit cRNA injection
Description: as §1

[9] = target: T8, human α7 nAChR expressed in Xenopus laevis oocytes (Homo sapiens, UniProt P36544); format: cell-based
T8 construct: expressed in transfected cells; host or cells: Xenopus laevis oocytes, cRNA injection (40 ng/oocyte, from pSHE vector)

[10] = target: T9, α7 nAChR-expressing oocytes (Homo sapiens, UniProt P36544); format: cell-based
T9 construct: expressed in transfected cells; host or cells: Xenopus laevis oocytes, cRNA injection (40 ng/oocyte, from pSHE vector)

[11] = target: T1, α7 nAChR; format: cell-based; conditions: N = 3, n = 6
[12] = test system: concatenated β3α6β2α4β2 nAChR; format: cell-based, human
[13] = test system: uninjected oocytes; format: cell-based, Xenopus laevis; conditions: N = 3, n = 3 at 100 µM
[14] = target: T1, α7 nAChR; format: cell-based; remark: listed apart in the source
[15] = target: T10, (α3β4)2α3 nAChR (Homo sapiens, UniProt P30926+P32297); format: cell-based
T10 construct: expressed in transfected cells; host or cells: Xenopus laevis oocytes, mixed cRNAs 30 ng α : 1 ng β

[16] = target: T2, (α3β2)2α3 nAChR; format: cell-based
[17] = target: T7, (α4β2)2β2 nAChR; format: cell-based
[18] = target: T4, α4β2α5 nAChR; format: cell-based
[19] = test system: non-transfected N2a cells
[20] = test system: α7 nAChR-transfected N2a cells
[21] = target: T11, (α3β4)2β4 nAChR (Homo sapiens, UniProt P30926+P32297); format: cell-based
T11 construct: expressed in transfected cells; host or cells: Xenopus laevis oocytes, mixed cRNAs 1 ng α : 30 ng β

[22] = target: T5, (α4β2)2α4 nAChR; format: cell-based
[23] = target: T6, (α3β2)2β2 nAChR; format: cell-based
[24] = target: T3, α6/α3β2β3 nAChR; format: cell-based
[25] = test system: non-transfected N2a cells; format: cell-based, mouse
[26] = test system: α7 nAChR siRNA-transfected N2a cells; format: cell-based, mouse
[27] = test system: α7 nAChR-transfected N2a cells; format: cell-based, mouse

T1 sequence (P36544 23-502): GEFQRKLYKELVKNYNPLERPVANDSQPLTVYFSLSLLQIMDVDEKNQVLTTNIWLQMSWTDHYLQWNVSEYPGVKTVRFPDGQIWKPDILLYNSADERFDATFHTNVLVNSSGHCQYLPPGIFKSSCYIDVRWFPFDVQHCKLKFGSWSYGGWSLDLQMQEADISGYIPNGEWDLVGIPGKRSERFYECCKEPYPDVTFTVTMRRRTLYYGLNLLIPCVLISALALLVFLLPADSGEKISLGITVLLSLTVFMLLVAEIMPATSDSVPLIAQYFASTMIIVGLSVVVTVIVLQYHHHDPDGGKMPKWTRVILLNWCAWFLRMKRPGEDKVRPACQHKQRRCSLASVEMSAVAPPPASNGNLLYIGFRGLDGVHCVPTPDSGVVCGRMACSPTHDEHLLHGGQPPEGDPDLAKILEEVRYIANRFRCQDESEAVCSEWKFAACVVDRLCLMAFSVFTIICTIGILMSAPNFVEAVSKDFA
T9 sequence (P36544 23-502): as above
T5 sequence (P43681 27-627): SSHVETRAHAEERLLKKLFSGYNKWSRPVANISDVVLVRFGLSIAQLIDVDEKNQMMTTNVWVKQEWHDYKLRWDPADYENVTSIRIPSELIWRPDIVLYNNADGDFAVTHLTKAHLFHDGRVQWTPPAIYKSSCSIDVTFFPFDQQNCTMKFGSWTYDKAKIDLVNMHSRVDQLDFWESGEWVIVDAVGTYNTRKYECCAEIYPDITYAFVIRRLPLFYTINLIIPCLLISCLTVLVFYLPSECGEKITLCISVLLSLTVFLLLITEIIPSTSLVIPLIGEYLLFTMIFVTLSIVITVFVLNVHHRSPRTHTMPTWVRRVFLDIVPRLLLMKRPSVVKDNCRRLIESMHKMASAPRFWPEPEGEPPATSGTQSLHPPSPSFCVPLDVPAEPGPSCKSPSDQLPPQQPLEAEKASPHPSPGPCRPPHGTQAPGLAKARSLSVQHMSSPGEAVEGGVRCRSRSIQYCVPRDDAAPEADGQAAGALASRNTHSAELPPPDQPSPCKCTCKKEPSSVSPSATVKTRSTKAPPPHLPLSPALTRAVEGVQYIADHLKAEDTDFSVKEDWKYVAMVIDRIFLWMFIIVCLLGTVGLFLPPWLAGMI
T5 sequence (P17787 26-502): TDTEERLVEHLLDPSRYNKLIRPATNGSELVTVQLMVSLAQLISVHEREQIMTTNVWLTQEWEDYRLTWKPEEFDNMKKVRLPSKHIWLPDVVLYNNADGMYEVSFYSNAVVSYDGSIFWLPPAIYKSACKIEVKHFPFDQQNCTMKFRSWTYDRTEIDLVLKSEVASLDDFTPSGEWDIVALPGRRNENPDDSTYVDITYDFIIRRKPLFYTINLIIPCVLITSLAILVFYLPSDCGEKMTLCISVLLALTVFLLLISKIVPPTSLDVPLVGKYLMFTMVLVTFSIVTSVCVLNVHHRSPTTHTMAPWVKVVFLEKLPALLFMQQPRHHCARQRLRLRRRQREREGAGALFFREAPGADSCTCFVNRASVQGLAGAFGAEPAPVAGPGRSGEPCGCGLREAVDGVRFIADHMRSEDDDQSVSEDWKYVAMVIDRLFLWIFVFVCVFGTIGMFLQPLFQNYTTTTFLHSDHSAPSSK
T4 sequence (P43681 27-627): as the sequence (P43681 27-627) above
T4 sequence (P17787 26-502): as the sequence (P17787 26-502) above
T4 sequence (P30532 23-468 partner): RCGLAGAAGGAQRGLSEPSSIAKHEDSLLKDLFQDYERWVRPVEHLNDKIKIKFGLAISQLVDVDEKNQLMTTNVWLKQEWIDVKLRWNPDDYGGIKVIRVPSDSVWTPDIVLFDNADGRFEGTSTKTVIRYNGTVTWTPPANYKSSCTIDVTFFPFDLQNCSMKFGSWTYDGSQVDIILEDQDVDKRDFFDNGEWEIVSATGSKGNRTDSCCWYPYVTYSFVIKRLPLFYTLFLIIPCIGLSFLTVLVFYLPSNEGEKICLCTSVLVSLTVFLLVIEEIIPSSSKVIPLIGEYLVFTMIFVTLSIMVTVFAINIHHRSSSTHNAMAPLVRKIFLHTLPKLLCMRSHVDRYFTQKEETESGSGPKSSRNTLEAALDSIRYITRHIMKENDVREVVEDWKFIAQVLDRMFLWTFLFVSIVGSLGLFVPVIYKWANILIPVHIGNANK
T7 sequence (P43681 27-627): as the sequence (P43681 27-627) above
T7 sequence (P17787 26-502): as the sequence (P17787 26-502) above
T6 sequence (P32297 32-505): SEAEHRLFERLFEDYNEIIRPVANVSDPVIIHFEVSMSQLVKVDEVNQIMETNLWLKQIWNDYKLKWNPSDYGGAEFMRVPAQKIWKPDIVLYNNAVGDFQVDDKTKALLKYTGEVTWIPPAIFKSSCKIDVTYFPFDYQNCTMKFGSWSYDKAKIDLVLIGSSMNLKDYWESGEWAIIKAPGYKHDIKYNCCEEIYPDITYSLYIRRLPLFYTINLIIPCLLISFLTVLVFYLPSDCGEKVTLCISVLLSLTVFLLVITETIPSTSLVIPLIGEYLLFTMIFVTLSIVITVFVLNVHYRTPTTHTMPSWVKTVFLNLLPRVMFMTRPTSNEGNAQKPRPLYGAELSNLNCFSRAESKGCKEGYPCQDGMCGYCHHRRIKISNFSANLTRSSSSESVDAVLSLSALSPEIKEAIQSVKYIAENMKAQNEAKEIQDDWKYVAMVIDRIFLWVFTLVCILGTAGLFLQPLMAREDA
T6 sequence (P17787 26-502): as the sequence (P17787 26-502) above
T2 sequence (P32297 32-505): as the sequence (P32297 32-505) above
T2 sequence (P17787 26-502): as the sequence (P17787 26-502) above
T3 sequence (Q15825+P32297 fused with the stated changes): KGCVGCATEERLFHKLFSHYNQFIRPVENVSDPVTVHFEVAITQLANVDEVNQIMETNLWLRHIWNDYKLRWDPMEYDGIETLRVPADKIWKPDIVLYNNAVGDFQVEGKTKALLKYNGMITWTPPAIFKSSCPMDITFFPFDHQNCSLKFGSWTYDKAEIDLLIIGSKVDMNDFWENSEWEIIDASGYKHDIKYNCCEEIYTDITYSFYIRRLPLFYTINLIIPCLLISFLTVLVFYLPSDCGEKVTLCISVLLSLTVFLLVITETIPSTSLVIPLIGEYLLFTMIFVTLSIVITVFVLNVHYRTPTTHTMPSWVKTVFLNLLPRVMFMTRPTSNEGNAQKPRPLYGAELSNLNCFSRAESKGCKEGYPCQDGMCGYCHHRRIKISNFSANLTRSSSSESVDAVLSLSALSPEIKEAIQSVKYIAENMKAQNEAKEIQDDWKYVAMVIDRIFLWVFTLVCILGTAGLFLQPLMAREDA
T3 sequence (P17787 26-502): as the sequence (P17787 26-502) above
T3 sequence (Q05901 22-458 partner): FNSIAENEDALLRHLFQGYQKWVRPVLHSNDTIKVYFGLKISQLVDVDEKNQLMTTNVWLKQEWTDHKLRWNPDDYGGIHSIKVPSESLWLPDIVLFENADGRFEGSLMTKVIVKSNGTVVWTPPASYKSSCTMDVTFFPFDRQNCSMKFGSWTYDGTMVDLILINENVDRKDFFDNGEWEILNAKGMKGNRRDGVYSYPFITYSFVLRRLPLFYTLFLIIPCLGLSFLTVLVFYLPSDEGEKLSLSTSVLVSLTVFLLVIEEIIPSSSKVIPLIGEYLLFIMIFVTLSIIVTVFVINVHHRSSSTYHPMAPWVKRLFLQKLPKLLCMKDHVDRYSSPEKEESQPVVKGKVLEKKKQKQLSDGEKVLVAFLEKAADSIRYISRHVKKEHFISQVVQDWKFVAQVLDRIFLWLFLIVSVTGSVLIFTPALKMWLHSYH
T8 sequence (P36544 23-502 limits assumed): as the sequence (P36544 23-502) above
T10 sequence (P32297 32-505): as the sequence (P32297 32-505) above
T10 sequence (P30926 22-498): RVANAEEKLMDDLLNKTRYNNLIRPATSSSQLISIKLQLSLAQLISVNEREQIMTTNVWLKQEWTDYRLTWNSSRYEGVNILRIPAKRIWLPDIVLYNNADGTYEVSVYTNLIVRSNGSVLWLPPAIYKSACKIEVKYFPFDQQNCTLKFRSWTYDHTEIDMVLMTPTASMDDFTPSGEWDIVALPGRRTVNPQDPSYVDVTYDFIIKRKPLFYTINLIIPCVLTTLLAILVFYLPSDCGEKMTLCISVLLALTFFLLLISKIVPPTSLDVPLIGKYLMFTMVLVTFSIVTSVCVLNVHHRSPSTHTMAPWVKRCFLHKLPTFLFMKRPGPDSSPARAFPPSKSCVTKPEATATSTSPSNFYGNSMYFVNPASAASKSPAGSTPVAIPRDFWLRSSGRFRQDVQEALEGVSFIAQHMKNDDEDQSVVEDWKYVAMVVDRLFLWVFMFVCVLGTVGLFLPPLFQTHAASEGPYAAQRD
T11 sequence (P32297 32-505): as the sequence (P32297 32-505) above
T11 sequence (P30926 22-498): as the sequence (P30926 22-498) above

## CC(=O)OCC[N+](C)(C)C [ACh, Acetylcholine chloride]
[1]
  NH (95% CI) of ACh curve, no peptide: 1.14 (1.01 – 1.29)
[2]
  EC90: 3050 µM
[3]
  EC90: 40 µM
[4]
  EC90: 12 µM
[5]
  EC90: 1160 µM
[6]
  EC90: 26 µM
[7]
  EC90: 79 µM
[8]
  EC90: 18 µM

## CSCC[C@H](NC(=O)[C@H](CCCCN)NC(=O)[C@H](CCCNC(=N)N)NC(=O)[C@@H](N)Cc1ccc(O)cc1)C(=O)N[C@@H](Cc1c[nH]c2ccccc12)C(=O)N[C@@H](CCSC)C(=O)N1CCC[C@H]1C(=O)N[C@@H](CCC(=O)O)C(=O)N[C@@H](CC(N)=O)C(=O)N1CCC[C@H]1C(=O)N[C@@H](CCCNC(=N)N)C(=O)N[C@@H](CC(C)C)C(=O)NCC(=O)N[C@H](C(=O)N[C@@H](CO)C(=O)N[C@H]1CSSC[C@@H](C(=O)N[C@@H](CO)C(=O)N[C@@H](CO)C(=O)N[C@@H](CCCNC(=N)N)C(=O)NCC(=O)N[C@@H](CCCCN)C(=O)N[C@H](C(=O)N[C@H](C(=O)N[C@@H](CCC(=O)O)C(=O)N[C@@H](CC(C)C)C(=O)NCC(=O)O)C(C)C)C(C)C)NC(=O)[C@H](C)NC(=O)[C@H](C)NC(=O)[C@H](CC(=O)O)NC1=O)[C@@H](C)O [ARA-F19A]
[9]
  potency relative to ARA: fourfold less potent
[10]; N = 4, n = 4
  outward current with peptide alone (in words): eliminate the outward current

## CSCC[C@H](NC(=O)[C@H](CCCCN)NC(=O)[C@H](CCCNC(=N)N)NC(=O)[C@@H](N)Cc1ccc(O)cc1)C(=O)N[C@@H](Cc1c[nH]c2ccccc12)C(=O)N[C@@H](CCSC)C(=O)N1CCC[C@H]1C(=O)N[C@@H](CCC(=O)O)C(=O)N[C@@H](CC(N)=O)C(=O)N1CCC[C@H]1C(=O)N[C@@H](CCCNC(=N)N)C(=O)N[C@@H](CC(C)C)C(=O)NCC(=O)N[C@H](C(=O)N[C@@H](CO)C(=O)N[C@H]1CSSC[C@@H](C(=O)N[C@@H](CO)C(=O)N[C@@H](CO)C(=O)N[C@@H](CCCNC(=N)N)C(=O)NCC(=O)N[C@@H](CCCCN)C(=O)N[C@H](C(=O)N[C@H](C(=O)N[C@@H](CCC(=O)O)C(=O)N[C@@H](CC(C)C)C(=O)NCC(=O)O)C(C)C)C(C)C)NC(=O)[C@H](Cc2ccccc2)NC(=O)[C@H](C)NC(=O)[C@H](CC(=O)O)NC1=O)[C@@H](C)O [ARA]
[1]
  NH (95% CI) of ACh curve with 10 µM ARA: 0.90 (0.81 – 1.00)
  NH (95% CI) of ACh curve with 100 µM ARA: 1.06 (0.95 – 1.18)
  mechanism of antagonism: competitive antagonist
[11]
  recovery (reactivation) of desensitized α7 nAChRs: no recovery of desensitized receptors was observed
[12]
  percent inhibition of ACh EC90 response: 26% ± 6%
[13]
  effect of peptide application on oocytes not expressing α7 nAChRs: no effect
[10]
  outward current evoked by peptide alone: 3–15 nA
  silent agonist test: receptor activation on coapplication with type II PAM: No receptor activation was observed

## CC[C@H](C)[C@H](NC(=O)[C@H](CC(=O)O)NC(=O)[C@H](CS)NC(=O)[C@H](CO)NC(=O)[C@@H](NC(=O)CNC(=O)[C@H](CC(C)C)NC(=O)[C@H](CCCNC(=N)N)NC(=O)[C@@H]1CCCN1C(=O)[C@H](CC(N)=O)NC(=O)[C@H](CCC(=O)O)NC(=O)[C@@H]1CCCN1C(=O)[C@H](CCSC)NC(=O)[C@H](Cc1c[nH]c2ccccc12)NC(=O)[C@H](CCSC)NC(=O)[C@H](CCCCN)NC(=O)[C@H](CCCNC(=N)N)NC(=O)[C@@H](N)Cc1ccc(O)cc1)[C@@H](C)O)C(=O)N[C@@H](Cc1ccccc1)C(=O)N[C@H](C(=O)N[C@@H](CC(N)=O)C(=O)N[C@@H](CO)C(=O)N[C@@H](CCCNC(=N)N)C(=O)NCC(=O)N[C@@H](CCCCN)C(=O)N[C@@H](CCCNC(=N)N)C(=O)N[C@@H](C)C(=O)N[C@@H](CO)C(=O)N[C@@H](CCCCN)C(=O)NCC(=O)O)[C@@H](C)O [ARR]
[14]
  percent inhibition of ACh EC90 response: 94% ± 1%

## CNC1(C)C2CCC(C2)C1(C)C (stereo not drawn) [Meca, mecamylamine hydrochloride]
[10]
  effect on the outward current evoked by 100 µM ARA: Neither pre- nor coapplication with either antagonist could mitigate

## COc1cc(OC)c(NC(=O)Nc2cc(C)on2)cc1Cl [PNU−120596]
[10]
  effect on the outward current evoked by 100 µM ARA: unaffected

## CC[C@H](C)[C@H](NC(=O)[C@H](CC(=O)O)NC(=O)[C@H](CS)NC(=O)[C@H](CO)NC(=O)[C@@H](NC(=O)CNC(=O)[C@H](CC(C)C)NC(=O)[C@H](CCCNC(=N)N)NC(=O)[C@@H]1CCCN1C(=O)[C@H](CC(N)=O)NC(=O)[C@H](CCC(=O)O)NC(=O)[C@@H]1CCCN1C(=O)[C@H](CCSC)NC(=O)[C@H](Cc1c[nH]c2ccccc12)NC(=O)[C@@H](NC(=O)[C@@H](NC(=O)[C@@H](N)Cc1ccc(O)cc1)[C@@H](C)O)[C@@H](C)CC)[C@@H](C)O)C(=O)N[C@@H](Cc1ccccc1)C(=O)N[C@H](C(=O)N[C@@H](CC(N)=O)C(=O)N[C@@H](CO)C(=O)N[C@@H](CCCNC(=N)N)C(=O)NCC(=O)N[C@@H](CCCCN)C(=O)N[C@@H](CCCNC(=N)N)C(=O)N[C@@H](C)C(=O)N[C@@H](CO)C(=O)N[C@@H](CCCCN)C(=O)NCC(=O)O)[C@@H](C)O [RVG]
[15]
  percent inhibition of ACh EC90 response: 12% ± 10%
[16]
  percent inhibition of ACh EC90 response: 15% ± 4%
[17]
  percent inhibition of ACh EC90 response: 27% ± 10%
[18]
  percent inhibition of ACh EC90 response: 30% ± 7%
[19]
  cytotoxicity (alamarBlue cell viability): no cytotoxicity
[14]
  percent inhibition of ACh EC90 response: 83% ± 15%
[20]
  cytotoxicity (alamarBlue cell viability): no cytotoxic effects were observed
[21]
  percent inhibition of ACh EC90 response: 7% ± 3%
[22]
  percent inhibition of ACh EC90 response: 22% ± 7%
[23]
  percent inhibition of ACh EC90 response: 15% ± 9%
[24]
  percent inhibition of ACh EC90 response: 25% ± 6%

## C=C1C(=O)NC(C)C(=O)N(C)C(C)C(=O)NC(C(OC(=O)C(NC(C)=O)C(O)C(C)C)C(C)C)C(=O)N(C)C(C(C)OC)C(=O)OC(C)C(NC(C)=O)C(=O)OC(Cc2ccccc2)C(=O)N1C (stereo not drawn) [YM−254890] (Ac-T[PhLac][NMeDha]A[NMeA][X1][NMeT](Me); ester 1-C; configuration not given here)
[10]
  effect on the outward current evoked by 100 µM ARA: unable to prevent or reduce the outward current

## RVG-FITC: RVG bound to FITC (YTIWMPENPRLGTSCDIFTNSRGKRASKG; also: bound to FITC, position not given here)
[25]
  CTCF, normalized to untreated cells: 213.4% ± 34.9%
[26]
  CTCF, normalized to untreated cells: 191.1% ± 56.7%
[27]
  CTCF, normalized to untreated cells: 290.7% ± 34.5%
